# Patent publication US6362179B1, “Salts of an optically-active sulfoxide derivative” (Sankyo Company, Limited, priority 1997, dated 2002)
# How the values were obtained:
# NK1 receptor = molecular target: T1, NK1 receptor (Cavia porcellus, UniProt P30547); assay: Inhibitory effect against increased vascular permeability induced by substance P; type: in vivo, guinea pig; conditions: male Hartley guinea pigs; for ID50 (mg/kg, p.o.): oral administration 1 hour before SP (1 μg/kg i.v.), Evans blue leakage into primary bronchus; for Inhibitory rate (%) on oral administration at 3.3 mg/kg: 3.3 mg/kg p.o. 1 hour before SP, pigment leakage
# T1 construct: increased vascular permeability induced by substance P (SP), an NK1 receptor agonist; from tissue; host or cells: living male Hartley guinea pig; pigment leakage at the primary bronchus
# T1 sequence (P30547 whole entry): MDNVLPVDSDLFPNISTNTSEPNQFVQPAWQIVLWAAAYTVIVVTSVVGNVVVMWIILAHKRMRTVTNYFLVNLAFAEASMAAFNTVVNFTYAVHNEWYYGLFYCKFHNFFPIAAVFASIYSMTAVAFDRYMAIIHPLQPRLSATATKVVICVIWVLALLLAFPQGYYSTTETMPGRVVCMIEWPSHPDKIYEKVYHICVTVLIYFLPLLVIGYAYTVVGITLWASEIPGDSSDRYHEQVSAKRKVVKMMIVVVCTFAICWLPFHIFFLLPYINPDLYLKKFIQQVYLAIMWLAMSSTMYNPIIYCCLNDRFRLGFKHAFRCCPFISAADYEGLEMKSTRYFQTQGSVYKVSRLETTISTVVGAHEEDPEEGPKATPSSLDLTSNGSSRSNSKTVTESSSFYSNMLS
# Description: Inhibitory Effect Against Increased Vascular Permeability
# The inhibitory effect on increased vascular permeability induced by substance P (SP), an NK1 receptor agonist, was assessed based on the amount of pigment leakage as an index using guinea pigs (body weight: approx. 400 g, male Hartley guinea pigs).
# A pigment (Evans blue: 40 mg/kg) was administered to the femoral vein of a guinea pig anesthetized with pentobarbital (30 mg/kg, i.p.) and immediately after that, SP (1 μg/kg) was intravenously injected to induce accentuation of vascular permeability. Fifteen minutes after the injection, the guinea pig was sacrificed under anesthesia with chloroform and the amount of the pigment leaked into the primary bronchus site was measured in accordance with Harada's method (J. Pharm. Pharmacol. 23, 218(1971)). A test substance was suspended in a 0.5% tragacanth suspension and orally administered to a guinea pig 1 hour before induction by SP. Its inhibitory action was determined by the ratio of the pigment leaked from the test-substance-administered group to that from the non-administered group. In Table 1, 50% inhibitory dose (ID50) and inhibitory rate in the case of oral administration at 3.3 mg/kg are shown.
# NK2 receptor = molecular target: T2, NK2 receptor (Cavia porcellus, UniProt Q64077); assay: Inhibitory effect against bronchoconstriction induced with [Nle10]-NKA[4-10]; type: in vivo, guinea pig; conditions: for ID50 (mg/kg, p.o.): male Hartley guinea pigs, oral administration one hour before [Nle10]-NKA[4-10] (4 μg/kg i.v.), AUC of airway pressure
# T2 construct: bronchoconstriction induced with [Nle^10]-NKA[4-10], an NK2 receptor agonist; from tissue; host or cells: living male Hartley guinea pig; airway pressure (Konzett-Roessler)
# T2 sequence (Q64077 1-402): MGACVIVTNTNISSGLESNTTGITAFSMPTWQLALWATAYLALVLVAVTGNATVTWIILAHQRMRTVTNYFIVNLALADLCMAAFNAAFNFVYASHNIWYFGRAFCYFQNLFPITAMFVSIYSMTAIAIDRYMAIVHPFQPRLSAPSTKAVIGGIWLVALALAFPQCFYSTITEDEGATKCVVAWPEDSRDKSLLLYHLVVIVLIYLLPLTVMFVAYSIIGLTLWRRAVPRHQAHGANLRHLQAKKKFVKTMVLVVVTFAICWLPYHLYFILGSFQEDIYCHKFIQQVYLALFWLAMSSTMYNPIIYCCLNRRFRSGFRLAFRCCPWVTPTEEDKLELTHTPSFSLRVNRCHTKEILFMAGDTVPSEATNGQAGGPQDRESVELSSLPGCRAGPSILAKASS
# NK1 receptors = NK1 receptors (Homo sapiens, UniProt P25103); assay: Pharmacological test of antagonistic activity against NK1 receptors in vitro; conditions: test made by the present inventors
# Chain of NK1 receptors (P25103 whole entry): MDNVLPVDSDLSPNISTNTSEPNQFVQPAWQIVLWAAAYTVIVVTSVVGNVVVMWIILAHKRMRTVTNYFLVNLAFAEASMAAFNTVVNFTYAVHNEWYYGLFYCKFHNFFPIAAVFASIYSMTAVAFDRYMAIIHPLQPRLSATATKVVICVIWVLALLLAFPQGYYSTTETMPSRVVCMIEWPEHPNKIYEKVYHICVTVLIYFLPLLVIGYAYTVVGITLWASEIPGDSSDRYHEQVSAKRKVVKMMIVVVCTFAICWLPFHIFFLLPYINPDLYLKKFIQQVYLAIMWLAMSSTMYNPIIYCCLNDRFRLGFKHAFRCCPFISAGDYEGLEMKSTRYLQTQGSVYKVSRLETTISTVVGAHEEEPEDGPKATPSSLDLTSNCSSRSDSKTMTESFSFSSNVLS
compound,measurement,setting,value
"Cc1cc(C)cc(C(=O)N(C)C[C@@H](CCN2CCC3(CC2)CN(S(C)(=O)=O)c2ccccc23)c2ccc(Cl)c(Cl)c2)c1 [Compound A, reference compound]","ID50 (mg/kg, p.o.)",NK1 receptor,greater than 10 mg/kg
same,ED50,"NK2 receptor; guinea pig, guinea pigs, intravenous injection of test substance, read-out: ID50 (the source's name)",> 10 mg/kg
"COc1cc(C(=O)N2CCOC(CCN3CCC4(CC3)c3ccccc3C[S+]4[O-])(c3ccc(Cl)c(Cl)c3)C2)cc(OC)c1OC.O=C(O)/C=C/C(=O)O [Compound of Ex. 2, 1-{2-[(2R)-(3,4-Dichlorophenyl)-4-(3,4,5-trimethoxybenzoyl)morpholin-2-yl]ethyl}spiro[benzo(c)thiophene-1(3H),4′-piperidin]-(2S)-oxide fumarate]",Inhibitory rate (%) on oral administration at 3.3 mg/kg,NK1 receptor,46.8%
same,"ID50 (mg/kg, p.o.)",NK2 receptor,0.54 mg/kg
"COc1cc(C(=O)N2CCO[C@](CCN3CCC4(CC3)c3ccccc3C[S@@+]4[O-])(c3ccc(Cl)c(Cl)c3)C2)cc(OC)c1OC.Cl [Compound of Ex. 1, 1-{2-[(2R)-(3,4-Dichlorophenyl)-4-(3,4,5-trimethoxybenzoyl)morpholin-2-yl]ethyl}spiro[benzo(c)thiophene-1(3H),4′-piperidin]-(2S)-oxide hydrochloride]",Inhibitory rate (%) on oral administration at 3.3 mg/kg,NK1 receptor,48.0%
same,"ID50 (mg/kg, p.o.)",NK1 receptor,5.1 mg/kg
same,"ID50 (mg/kg, p.o.)",NK2 receptor,0.51 mg/kg
CN(C[C@@H](CCN1CCC2(CCc3ccccc32)CC1)c1ccc(Cl)c(Cl)c1)C(=O)c1ccccc1 [B],antagonistic activity against NK1 receptors in vitro,NK1 receptors,markedly weak
